Measurements: PubChem BioAssay (NCI)
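GI50 marks 50% less growth. TGI marks complete inhibition of growth.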

Tests used:
Assay in all cases: inhibition of tumour cell growth, NCI panel, 384-well format
MDA-MB-468 breast = test system: MDA-MB-468 breast
MDA-MB-435 melanoma = test system: MDA-MB-435 melanoma
IGROV1 ovarian = test system: IGROV1 ovarian
K-562 leukemia = test system: K-562 leukemia
UACC-257 melanoma = test system: UACC-257 melanoma
SK-MEL-28 melanoma = test system: SK-MEL-28 melanoma
SNB-19 CNS = test system: SNB-19 CNS
COLO 205 colon = test system: COLO 205 colon
NCI-H460 NSCLC = test system: NCI-H460 NSCLC
HCT-116 colon = test system: HCT-116 colon
OVCAR-3 ovarian = test system: OVCAR-3 ovarian
HS 578T breast = test system: HS 578T breast
KM12 colon = test system: KM12 colon
CCRF-CEM leukemia = test system: CCRF-CEM leukemia
MCF7 breast = test system: MCF7 breast
A498 renal = test system: A498 renal
EKVX NSCLC = test system: EKVX NSCLC
TK-10 renal = test system: TK-10 renal
CAKI-1 renal = test system: CAKI-1 renal
HCT-15 colon = test system: HCT-15 colon
PC-3 prostate = test system: PC-3 prostate
LOX IMVI melanoma = test system: LOX IMVI melanoma
M14 melanoma = test system: M14 melanoma
SK-OV-3 ovarian = test system: SK-OV-3 ovarian
UO-31 renal = test system: UO-31 renal
MALME-3M melanoma = test system: MALME-3M melanoma
RPMI-8226 leukemia = test system: RPMI-8226 leukemia
RXF 393 renal = test system: RXF 393 renal
U251 glioblastoma = test system: U251 glioblastoma
SF-295 CNS = test system: SF-295 CNS
SW-620 colon = test system: SW-620 colon
SF-539 CNS = test system: SF-539 CNS
SK-MEL-5 melanoma = test system: SK-MEL-5 melanoma
A549 NSCLC = test system: A549 NSCLC
HOP-92 NSCLC = test system: HOP-92 NSCLC
HCC-2998 colon = test system: HCC-2998 colon
NCI-H322M lung = test system: NCI-H322M lung
NCI-H23 lung = test system: NCI-H23 lung
HT29 colon = test system: HT29 colon
786-0 renal = test system: 786-0 renal
SF-268 CNS = test system: SF-268 CNS
ACHN renal = test system: ACHN renal
UACC-62 melanoma = test system: UACC-62 melanoma
T-47D breast = test system: T-47D breast
SNB-75 CNS = test system: SNB-75 CNS
MOLT-4 leukemia = test system: MOLT-4 leukemia
MDA-MB-231 breast = test system: MDA-MB-231 breast
NCI-H522 lung = test system: NCI-H522 lung
OVCAR-5 ovarian = test system: OVCAR-5 ovarian
NCI/ADR-RES ovarian = test system: NCI/ADR-RES ovarian
HOP-62 NSCLC = test system: HOP-62 NSCLC
OVCAR-4 ovarian = test system: OVCAR-4 ovarian
SR leukemia = test system: SR leukemia
OVCAR-8 ovarian = test system: OVCAR-8 ovarian
SN12C renal = test system: SN12C renal
DU-145 prostate = test system: DU-145 prostate
BT-549 breast = test system: BT-549 breast
HL-60(TB) leukemia = test system: HL-60(TB) leukemia
NCI-H226 lung = test system: NCI-H226 lung

Nc1nc(Cl)nc2c1ncn2[C@@H]1O[C@H](COS(N)(=O)=O)[C@@H](O)[C@H]1O
GI50 (MDA-MB-468 breast): 13.3 nM | TGI (MDA-MB-468 breast): 26.5 nM | TGI (MDA-MB-435 melanoma): 16.7 nM | GI50 (IGROV1 ovarian): 20.5 nM | TGI (IGROV1 ovarian): 54.7 nM | TGI (K-562 leukemia): 14 nM | GI50 (UACC-257 melanoma): 20.1 nM | TGI (UACC-257 melanoma): 36.5 nM | GI50 (SK-MEL-28 melanoma): 13.8 nM | TGI (SK-MEL-28 melanoma): 27.1 nM | TGI (SNB-19 CNS): 13.6 nM | GI50 (COLO 205 colon): 18.2 nM | TGI (COLO 205 colon): 38 nM | TGI (NCI-H460 NSCLC): 32 nM | TGI (HCT-116 colon): 40.9 nM | GI50 (OVCAR-3 ovarian): 20.9 nM | TGI (OVCAR-3 ovarian): 41.5 nM | GI50 (HS 578T breast): 15.1 nM | TGI (HS 578T breast): 29.4 nM | TGI (KM12 colon): 15.1 nM | TGI (CCRF-CEM leukemia): 10.5 nM | TGI (MCF7 breast): 69.7 nM | GI50 (A498 renal): 19.8 nM | TGI (A498 renal): 39.2 nM | GI50 (EKVX NSCLC): 22.3 nM | TGI (EKVX NSCLC): 49.5 nM | TGI (TK-10 renal): 36 nM | GI50 (CAKI-1 renal): 15.7 nM | TGI (CAKI-1 renal): 42.2 nM | GI50 (HCT-15 colon): 20.7 nM | TGI (HCT-15 colon): 45.1 nM | GI50 (PC-3 prostate): 12.3 nM | TGI (PC-3 prostate): 33.6 nM | GI50 (LOX IMVI melanoma): 17.3 nM | TGI (LOX IMVI melanoma): 31.6 nM | GI50 (M14 melanoma): 16.6 nM | TGI (M14 melanoma): 30.4 nM | GI50 (SK-OV-3 ovarian): 12.4 nM | TGI (SK-OV-3 ovarian): 44.1 nM | GI50 (UO-31 renal): 19.4 nM | TGI (UO-31 renal): 35.8 nM | GI50 (MALME-3M melanoma): 11.1 nM | TGI (MALME-3M melanoma): 23.3 nM | TGI (RPMI-8226 leukemia): 11.8 nM | GI50 (RXF 393 renal): 16.5 nM | TGI (RXF 393 renal): 31.9 nM | GI50 (U251 glioblastoma): 14.3 nM | TGI (U251 glioblastoma): 34.2 nM | GI50 (SF-295 CNS): 21.4 nM | TGI (SF-295 CNS): 48.3 nM | TGI (SW-620 colon): 42.8 nM | GI50 (SF-539 CNS): 15 nM | TGI (SF-539 CNS): 28.6 nM | GI50 (SK-MEL-5 melanoma): 15.9 nM | TGI (SK-MEL-5 melanoma): 29.6 nM | GI50 (A549 NSCLC): 15.6 nM | TGI (A549 NSCLC): 44 nM | GI50 (HOP-92 NSCLC): 10 nM | TGI (HOP-92 NSCLC): 25 nM | GI50 (HCC-2998 colon): 14.6 nM | TGI (HCC-2998 colon): 28.9 nM | TGI (NCI-H322M lung): 27.4 nM | GI50 (NCI-H23 lung): 10.9 nM | TGI (NCI-H23 lung): 24 nM | GI50 (HT29 colon): 18.4 nM | TGI (HT29 colon): 33.3 nM | GI50 ([…]-0 renal): 17.3 nM | TGI (786-0 renal): 34.1 nM | TGI (SF-268 CNS): 11.4 nM | GI50 (ACHN renal): 24.3 nM | TGI (ACHN renal): 57.5 nM | GI50 (UACC-62 melanoma): 16.4 nM | TGI (UACC-62 melanoma): 30.3 nM | TGI (T-47D breast): 50.7 nM | TGI (SNB-75 CNS): 19.9 nM

Cn1ncnc1C1c2n[nH]c(=O)c3cc(F)cc(c23)NC1c1ccc(F)cc1 (stereo not drawn)
GI50 (MDA-MB-468 breast): 677 nM | TGI (MDA-MB-468 breast): 4680 nM | GI50 (MOLT-4 leukemia): 234 nM | TGI (MOLT-4 leukemia): 1060 nM | GI50 (MDA-MB-435 melanoma): > 100000 nM | TGI (MDA-MB-435 melanoma): > 100000 nM | GI50 (IGROV1 ovarian): > 100000 nM | TGI (IGROV1 ovarian): > 100000 nM | GI50 (UACC-257 melanoma): > 100000 nM | TGI (UACC-257 melanoma): > 100000 nM | GI50 (MDA-MB-231 breast): > 100000 nM | TGI (MDA-MB-231 breast): > 100000 nM | GI50 (NCI-H522 lung): > 100000 nM | TGI (NCI-H522 lung): > 100000 nM | GI50 (SK-MEL-28 melanoma): > 100000 nM | TGI (SK-MEL-28 melanoma): > 100000 nM | GI50 (SNB-19 CNS): 5200 nM | TGI (SNB-19 CNS): > 100000 nM | GI50 (COLO 205 colon): 1850 nM | TGI (COLO 205 colon): > 100000 nM | GI50 (NCI-H460 NSCLC): 19.1 nM | TGI (NCI-H460 NSCLC): 1560 nM | GI50 (HCT-116 colon): 857 nM | TGI (HCT-116 colon): > 100000 nM | GI50 (OVCAR-5 ovarian): > 100000 nM | TGI (OVCAR-5 ovarian): > 100000 nM | GI50 (OVCAR-3 ovarian): 82700 nM | TGI (OVCAR-3 ovarian): > 100000 nM | GI50 (HS 578T breast): > 100000 nM | TGI (HS 578T breast): > 100000 nM | GI50 (KM12 colon): > 100000 nM | TGI (KM12 colon): > 100000 nM | GI50 (MCF7 breast): 3630 nM | TGI (MCF7 breast): > 100000 nM | GI50 (A498 renal): 24800 nM | TGI (A498 renal): > 100000 nM | GI50 (EKVX NSCLC): > 100000 nM | TGI (EKVX NSCLC): > 100000 nM | GI50 (TK-10 renal): > 100000 nM | TGI (TK-10 renal): > 100000 nM | GI50 (CAKI-1 renal): > 100000 nM | TGI (CAKI-1 renal): > 100000 nM | GI50 (NCI/ADR-RES ovarian): 8170 nM | TGI (NCI/ADR-RES ovarian): > 100000 nM | GI50 (HCT-15 colon): 32500 nM | TGI (HCT-15 colon): > 100000 nM | GI50 (PC-3 prostate): > 100000 nM | TGI (PC-3 prostate): > 100000 nM | GI50 (LOX IMVI melanoma): 2430 nM | TGI (LOX IMVI melanoma): > 100000 nM | GI50 (SK-OV-3 ovarian): 2300 nM | TGI (SK-OV-3 ovarian): > 100000 nM | GI50 (HOP-62 NSCLC): 278 nM | TGI (HOP-62 NSCLC): 4140 nM | GI50 (MALME-3M melanoma): > 100000 nM | TGI (MALME-3M melanoma): > 100000 nM | GI50 (RPMI-8226 leukemia): 1650 nM | TGI (RPMI-8226 leukemia): > 100000 nM | GI50 (RXF 393 renal): > 100000 nM | TGI (RXF 393 renal): > 100000 nM | GI50 (U251 glioblastoma): 3460 nM | TGI (U251 glioblastoma): > 100000 nM | GI50 (SF-295 CNS): 383 nM | TGI (SF-295 CNS): 8070 nM | GI50 (OVCAR-4 ovarian): 19000 nM | TGI (OVCAR-4 ovarian): > 100000 nM | GI50 (SF-539 CNS): 1810 nM | TGI (SF-539 CNS): > 100000 nM | GI50 (SK-MEL-5 melanoma): > 100000 nM | TGI (SK-MEL-5 melanoma): > 100000 nM | GI50 (A549 NSCLC): > 100000 nM | TGI (A549 NSCLC): > 100000 nM | GI50 (HOP-92 NSCLC): > 100000 nM | TGI (HOP-92 NSCLC): > 100000 nM | TGI (SR leukemia): 21.5 nM | GI50 (NCI-H322M lung): > 100000 nM | TGI (NCI-H322M lung): > 100000 nM | GI50 (NCI-H23 lung): 1890 nM | TGI (NCI-H23 lung): > 100000 nM | GI50 (HT29 colon): > 100000 nM | TGI (HT29 colon): > 100000 nM | GI50 (OVCAR-8 ovarian): 2150 nM | TGI (OVCAR-8 ovarian): > 100000 nM | GI50 (SN12C renal): 1530 nM | TGI (SN12C renal): > 100000 nM | GI50 (SF-268 CNS): 1730 nM | TGI (SF-268 CNS): > 100000 nM | GI50 (ACHN renal): 43600 nM | TGI (ACHN renal): > 100000 nM | GI50 (DU-145 prostate): 2200 nM | TGI (DU-145 prostate): 14400 nM | GI50 (UACC-62 melanoma): > 100000 nM | TGI (UACC-62 melanoma): > 100000 nM | GI50 (BT-549 breast): 4680 nM | TGI (BT-549 breast): > 100000 nM | GI50 (HL-60(TB) leukemia): 1200 nM | TGI (HL-60(TB) leukemia): 2560 nM | GI50 (T-47D breast): > 100000 nM | TGI (T-47D breast): > 100000 nM | GI50 (NCI-H226 lung): > 100000 nM | TGI (NCI-H226 lung): > 100000 nM | GI50 (SNB-75 CNS): 5520 nM | TGI (SNB-75 CNS): > 100000 nM
